Test results: ChEMBL document CHEMBL5380795, “Design, Synthesis, and Bioactivity Investigation of Cyclic Lipopeptide Antibiotics Containing Eight to Nine Amino Acids” (J Med Chem, 2023)
≈ marks a conversion by molar mass, not a printed value. Bridge positions count the residues as written; N and C are the ends. Square brackets hold non-standard residues; d marks the D form. Peptide text beside a SMILES is read from it. * marks the point of attachment. Decanoyl(3R-OH) = CCCCCCC[C@@H](O)CC(=O)*; X1 = CC[C@H](C)CCCCC(=O)*; dDab = NCC[C@@H](N)C(=O)O; Dab = NCC[C@H](N)C(=O)O

Key:
[1] = Selectivity index, ratio of IC50 for cytotoxicity against human HK-2 cells to MIC for antibacterial activity against Escherichia coli ATCC BAA-2523; assay type: toxicity, cell-based
Klebsiella pneumoniae [2] = assay: Antibacterial activity against carbapenem resistant Klebsiella pneumoniae clinical isolate 19-15 assessed as inhibition of bacterial growth incubated for 18 to 24 hrs by broth microdilution method; assay type: functional; settings: time 18-24 hrs
Escherichia coli [3] = assay: Antibacterial activity against KPC producing Escherichia coli ATCC BAA-2340 assessed as inhibition of bacterial growth incubated for 18 to 24 hrs by broth microdilution method; assay type: functional; settings: time 18-24 hrs
Escherichia coli [4] = assay: Antibacterial activity against Escherichia coli ATCC BAA-2523 assessed as inhibition of bacterial growth incubated for 18 to 24 hrs by broth microdilution method; assay type: functional; settings: time 18-24 hrs
Acinetobacter baumannii [5] = assay: Antibacterial activity against carbapenem resistant Acinetobacter baumannii clinical isolate 19-8 assessed as inhibition of bacterial growth incubated for 18 to 24 hrs by broth microdilution method; assay type: functional; settings: time 18-24 hrs
Pseudomonas aeruginosa [6] = assay: Antibacterial activity against carbapenem resistant Pseudomonas aeruginosa clinical isolate 17-1 assessed as inhibition of bacterial growth incubated for 18 to 24 hrs by broth microdilution method; assay type: functional; settings: time 18-24 hrs
[7] = Cytotoxicity against human HK-2 cells assessed as inhibition of cell growth incubated for 72 hrs by CCK-8 assay; assay type: toxicity, cell-based
Acinetobacter baumannii [8] = assay: Antibacterial activity against oxacillinase-27 producing Acinetobacter baumannii NCTC 13304 assessed as inhibition of bacterial growth incubated for 18 to 24 hrs by broth microdilution method; assay type: functional; settings: time 18-24 hrs
Staphylococcus aureus [9] = assay: Antibacterial activity against methicillin resistant Staphylococcus aureus ATCC 33591 assessed as inhibition of bacterial growth incubated for 18 to 24 hrs by broth microdilution method; assay type: functional; settings: time 18-24 hrs
Escherichia coli [10] = assay: Antibacterial activity against Escherichia coli clinical isolate 19-2 assessed as inhibition of bacterial growth incubated for 18 to 24 hrs by broth microdilution method; assay type: functional; settings: time 18-24 hrs
Pseudomonas aeruginosa [11] = assay: Antibacterial activity against Pseudomonas aeruginosa ATCC 27853 assessed as inhibition of bacterial growth incubated for 18 to 24 hrs by broth microdilution method; assay type: functional; settings: time 18-24 hrs
Pseudomonas aeruginosa [12] = assay: Antibacterial activity against Pseudomonas aeruginosa clinical isolate 19-1 assessed as inhibition of bacterial growth incubated for 18 to 24 hrs by broth microdilution method; assay type: functional; settings: time 18-24 hrs
Pseudomonas aeruginosa [13] = assay: Antibacterial activity against carbapenem resistant Pseudomonas aeruginosa clinical isolate 19-3 assessed as inhibition of bacterial growth incubated for 18 to 24 hrs by broth microdilution method; assay type: functional; settings: time 18-24 hrs
[14] = tested on: Staphylococcus epidermidis; assay: Antibacterial activity against methicillin resistant Staphylococcus epidermidis clinical isolate 19-5 assessed as inhibition of bacterial growth incubated for 18 to 24 hrs by broth microdilution method; assay type: functional; settings: time 18-24 hrs
Escherichia coli [15] = assay: Antibacterial activity against Escherichia coli NCTC 13353 assessed as inhibition of bacterial growth incubated for 18 to 24 hrs by broth microdilution method; assay type: functional; settings: time 18-24 hrs
Klebsiella pneumoniae [16] = assay: Antibacterial activity against KPC producing Klebsiella pneumoniae ATCC BAA-1705 assessed as inhibition of bacterial growth incubated for 18 to 24 hrs by broth microdilution method; assay type: functional; settings: time 18-24 hrs
[17] = tested on: Staphylococcus epidermidis; assay: Antibacterial activity against methicillin resistant Staphylococcus epidermidis clinical isolate 19-6 assessed as inhibition of bacterial growth incubated for 18 to 24 hrs by broth microdilution method; assay type: functional; settings: time 18-24 hrs
Klebsiella pneumoniae [18] = assay: Antibacterial activity against carbapenem resistant Klebsiella pneumoniae clinical isolate 19-17 assessed as inhibition of bacterial growth incubated for 18 to 24 hrs by broth microdilution method; assay type: functional; settings: time 18-24 hrs
Staphylococcus aureus [19] = assay: Antibacterial activity against Staphylococcus aureus ATCC 29213 assessed as inhibition of bacterial growth incubated for 18 to 24 hrs by broth microdilution method; assay type: functional; settings: time 18-24 hrs

SMILES	selectivity ratio [1]	MIC (Klebsiella pneumoniae [2]) [µg/mL]	MIC (Escherichia coli [3]) [µg/mL]	MIC (Escherichia coli [4]) [µg/mL]	MIC (Acinetobacter baumannii [5]) [µg/mL]	MIC (Pseudomonas aeruginosa [6]) [µg/mL]	IC50 at 72 h [7] [µg/mL]	MIC (Acinetobacter baumannii [8]) [µg/mL]	MIC (Staphylococcus aureus [9]) [µg/mL]	MIC (Escherichia coli [10]) [µg/mL]	MIC (Pseudomonas aeruginosa [11]) [µg/mL]	MIC (Pseudomonas aeruginosa [12]) [µg/mL]	MIC (Pseudomonas aeruginosa [13]) [µg/mL]	MIC [14] [µg/mL]	MIC (Escherichia coli [15]) [µg/mL]	MIC (Klebsiella pneumoniae [16]) [µg/mL]	MIC [17] [µg/mL]	MIC (Klebsiella pneumoniae [18]) [µg/mL]	MIC (Staphylococcus aureus [19]) [µg/mL]
CCCCCCCCCC(=O)N[C@H](CCN)C(=O)N[C@H]1CCNC(=O)[C@H]([C@@H](C)O)NC(=O)[C@H](CCN)NC(=O)[C@H](CCN)NC(=O)[C@H](CC(C)C)NC(=O)[C@@H](CC(C)C)NC(=O)[C@H](CCCCN)NC1=O	< 3.1	> 64	> 64	> 64	> 64	> 64	196 (≈ 193 µM)	> 64	> 64	> 64	> 64	> 64	> 64	8 (≈ 7.92 µM)	> 64	> 64	32 (≈ 31.7 µM)	> 64	> 64
CCCCCCC[C@@H](O)CC(=O)N[C@H](CCN)C(=O)N[C@H]1CCNC(=O)[C@H]([C@@H](C)O)NC(=O)[C@H](CCN)NC(=O)[C@H](CCN)NC(=O)[C@H](CC(C)C)NC(=O)[C@@H](Cc2ccccc2)NC(=O)[C@H](CCN)NC1=O ({Decanoyl(3R-OH)}-[dDab][Dab][Dab][dF]L[Dab][Dab]T; lactam 2-C)	125	2 (≈ 1.94 µM)	1 (≈ 0.969 µM)	1 (≈ 0.969 µM)	32 (≈ 31 µM)	0.5 (≈ 0.484 µM)	125 (≈ 121 µM)	32 (≈ 31 µM)	> 64	2 (≈ 1.94 µM)	0.5 (≈ 0.484 µM)	0.5 (≈ 0.484 µM)	1 (≈ 0.969 µM)	8 (≈ 7.75 µM)	4 (≈ 3.87 µM)	0.5 (≈ 0.484 µM)	32 (≈ 31 µM)	4 (≈ 3.87 µM)	> 64
CCCCCCC[C@H](O)CC(=O)N[C@H](CCN)C(=O)N[C@H]1CCNC(=O)[C@H](CC(C)C)NC(=O)[C@H](CCN)NC(=O)[C@H](CCN)NC(=O)[C@H](CC(C)C)NC(=O)[C@@H](CC(C)C)NC(=O)[C@H](CCN)NC1=O	19.4	8 (≈ 7.92 µM)	2 (≈ 1.98 µM)	4 (≈ 3.96 µM)	2 (≈ 1.98 µM)	2 (≈ 1.98 µM)	77.6 (≈ 76.8 µM)	1 (≈ 0.99 µM)	> 64	8 (≈ 7.92 µM)	1 (≈ 0.99 µM)	2 (≈ 1.98 µM)	4 (≈ 3.96 µM)	2 (≈ 1.98 µM)	8 (≈ 7.92 µM)	4 (≈ 3.96 µM)	16 (≈ 15.8 µM)	8 (≈ 7.92 µM)	> 64
CCCCCCCCCC(=O)N[C@H](CCN)C(=O)N[C@H]1CCNC(=O)[C@H]([C@@H](C)O)NC(=O)[C@H](CCN)NC(=O)[C@H](CCN)NC(=O)[C@H](CC(C)C)NC(=O)[C@H](CC(C)C)NC(=O)[C@H](CCN)NC1=O	< 0.9	> 64	64 (≈ 65.2 µM)	> 64	> 64	> 64	58.7 (≈ 59.8 µM)	> 64	> 64	> 64	> 64	> 64	> 64	4 (≈ 4.07 µM)	> 64	> 64	16 (≈ 16.3 µM)	> 64	> 64
CCCCCCCCCC(=O)N[C@H](CCN)C(=O)N[C@H]1CCNC(=O)[C@H]([C@@H](C)O)NC(=O)[C@H](CCN)NC(=O)[C@H](CCN)NC(=O)[C@H](CC(C)C)NC(=O)[C@@H](Cc2ccc(Cl)cc2)NC(=O)[C@H](CCN)NC1=O	48.1	2 (≈ 1.9 µM)	1 (≈ 0.952 µM)	1 (≈ 0.952 µM)	32 (≈ 30.5 µM)	1 (≈ 0.952 µM)	48.1 (≈ 45.8 µM)	8 (≈ 7.61 µM)	16 (≈ 15.2 µM)	1 (≈ 0.952 µM)	0.5 (≈ 0.476 µM)	0.5 (≈ 0.476 µM)	0.5 (≈ 0.476 µM)	0.5 (≈ 0.476 µM)	2 (≈ 1.9 µM)	0.5 (≈ 0.476 µM)	4 (≈ 3.81 µM)	2 (≈ 1.9 µM)	8 (≈ 7.61 µM)
CCCCCCCC(=O)N[C@H](CCN)C(=O)N[C@H]1CCNC(=O)[C@H](CC(C)C)NC(=O)[C@H](CCN)NC(=O)[C@H](CCN)NC(=O)[C@H](CC(C)C)NC(=O)[C@@H](CC(C)C)NC(=O)[C@H](CCN)NC1=O	6.2	16 (≈ 16.6 µM)	2 (≈ 2.07 µM)	32 (≈ 33.1 µM)	16 (≈ 16.6 µM)	2 (≈ 2.07 µM)	198 (≈ 205 µM)	8 (≈ 8.28 µM)	> 64	32 (≈ 33.1 µM)	1 (≈ 1.03 µM)	8 (≈ 8.28 µM)	4 (≈ 4.14 µM)	8 (≈ 8.28 µM)	16 (≈ 16.6 µM)	2 (≈ 2.07 µM)	64 (≈ 66.2 µM)	16 (≈ 16.6 µM)	> 64
CC(C)C[C@@H]1NC(=O)[C@@H](CC(C)C)NC(=O)[C@H](CCN)NC(=O)[C@@H](NC(=O)[C@@H](CCN)NC(=O)CCCCCc2ccccc2)CCNC(=O)[C@H]([C@@H](C)O)NC(=O)[C@H](CCN)NC(=O)[C@H](CCN)NC1=O	19.3	> 64	8 (≈ 7.98 µM)	16 (≈ 16 µM)	> 64	4 (≈ 3.99 µM)	309 (≈ 309 µM)	> 64	> 64	16 (≈ 16 µM)	1 (≈ 0.998 µM)	2 (≈ 2 µM)	4 (≈ 3.99 µM)	8 (≈ 7.98 µM)	32 (≈ 31.9 µM)	8 (≈ 7.98 µM)	64 (≈ 63.9 µM)	> 64	> 64
CCCCCCCCCC(=O)N[C@H](CCN)C(=O)N[C@H]1CCNC(=O)[C@H](CC(C)C)NC(=O)[C@H](CCN)NC(=O)[C@H](CCN)NC(=O)[C@H](Cc2ccccc2)NC(=O)[C@@H](Cc2ccccc2)NC(=O)[C@H](CCN)NC1=O	4	8 (≈ 7.53 µM)	2 (≈ 1.88 µM)	8 (≈ 7.53 µM)	16 (≈ 15.1 µM)	8 (≈ 7.53 µM)	32.2 (≈ 30.3 µM)	16 (≈ 15.1 µM)	32 (≈ 30.1 µM)	8 (≈ 7.53 µM)	8 (≈ 7.53 µM)	4 (≈ 3.77 µM)	4 (≈ 3.77 µM)	1 (≈ 0.941 µM)	8 (≈ 7.53 µM)	16 (≈ 15.1 µM)	1 (≈ 0.941 µM)	16 (≈ 15.1 µM)	8 (≈ 7.53 µM)
CCCCCCCCCC(=O)N[C@H](CCN)C(=O)N[C@H]1CCNC(=O)[C@H](CC(C)C)NC(=O)[C@H](CCN)NC(=O)[C@H](CCN)NC(=O)[C@H](CC(C)C)NC(=O)[C@@H](CC(C)C)NC(=O)[C@H](CCN)NC1=O	3.3	8 (≈ 8.05 µM)	4 (≈ 4.02 µM)	16 (≈ 16.1 µM)	4 (≈ 4.02 µM)	2 (≈ 2.01 µM)	53.5 (≈ 53.8 µM)	8 (≈ 8.05 µM)	64 (≈ 64.4 µM)	16 (≈ 16.1 µM)	1 (≈ 1.01 µM)	2 (≈ 2.01 µM)	8 (≈ 8.05 µM)	2 (≈ 2.01 µM)	16 (≈ 16.1 µM)	2 (≈ 2.01 µM)	8 (≈ 8.05 µM)	16 (≈ 16.1 µM)	32 (≈ 32.2 µM)
CCCCCCCCCC(=O)N[C@H](CCN)C(=O)N[C@H]1CNC(=O)[C@H]([C@@H](C)O)NC(=O)[C@H](CCN)NC(=O)[C@H](CCN)NC(=O)[C@H](CC(C)C)NC(=O)[C@@H](CC(C)C)NC(=O)[C@H](CCN)NC1=O	–	> 64	> 64	< 64	> 64	> 64	68.6 (≈ 70.8 µM)	> 64	> 64	> 64	> 64	> 64	> 64	1 (≈ 1.03 µM)	> 64	> 64	32 (≈ 33 µM)	> 64	> 64
CCCCCCCCCC(=O)N[C@H](CCN)C(=O)N[C@H]1CCNC(=O)[C@H]([C@@H](C)O)NC(=O)[C@H](CCN)NC(=O)[C@H](CCN)NC(=O)[C@H](CC(=O)O)NC(=O)[C@@H](CC(C)C)NC(=O)[C@H](CCN)NC1=O	–	> 64	> 64	> 64	> 64	> 64	> 500	> 64	> 64	> 64	> 64	> 64	> 64	> 64	> 64	> 64	> 64	> 64	> 64
CC[C@H](C)CCCCC(=O)N[C@@H](CCN)C(=O)N[C@H](C(=O)N[C@@H](CCN)C(=O)N[C@H]1CCNC(=O)[C@H]([C@@H](C)O)NC(=O)[C@H](CCN)NC(=O)[C@H](CCN)NC(=O)[C@H](CC(C)C)NC(=O)[C@@H](Cc2ccccc2)NC(=O)[C@H](CCN)NC1=O)[C@@H](C)O (X1-[Dab]T[Dab][Dab][Dab][dF]L[Dab][Dab]T; lactam 4-C)	> 932	–	–	–	–	–	55.9 (≈ 46.4 µM)	–	–	–	–	–	–	–	–	–	–	–	–
